As usually defined, the half-life is the time needed for the level to fall by half in the phase considered.

One series deals with rat formalin (1%) model. Nature of the series: rat formalin (1%) test. The note with it: 300 mg/kg, oral, 1 hr pretreatment; 1% formalin intraplantar; FIG. 1. In kind it is in vivo. As to the method: 5-Methyl-1H-pyrazole-3-carboxylic acid (4-hydroxy-phenyl)-amide (Compound 1) was tested in the rat formalin (1%) model. The rat formalin test is a preclinical model of human painful conditions.
The formalin test in rat (or mice) is a valid and reliable model of nociception (sensation of pain) and is sensitive for various classes of analgesic drugs. Formalin is a solution of formaldehyde in water. The subcutaneous injection of dilute formalin induces pain in humans and nociceptive (presumptive of pain) behaviors in animals. Since it is painful when it is injected in humans, it is used as an animal model that is considered translational to human pain. […]
In the formalin model, pain response scoring is determined by recording the pain-like behaviors per unit of time including licking, flinching, or raising or shaking of the injected paw. […]
For all Groups, animals were acclimated to the observation chamber for about 15 minutes immediately prior to formalin injection. All animals received an intraplantar subcutaneous injection of 50 μL of 1% formalin into the left hind paw and were then be placed in the observation chamber immediately and formalin-evoked spontaneous nociceptive behaviors in the rats was continuously recorded for 0-60 min using a commercial camcorder. […]

The subject of another series is neuropathic pain. Briefly: 12 week study in subjects with neuropathic pain. The class given is in vivo, human. The note with it: arms including 1000 and 2000 mg/day. The source says:
Subjects are diagnosed with neuropathic pain (chronic and ongoing for more than 3 months in contrast to an acute injury of nerve or nervous system).
In case of low back pain (mixed pain) a possible, probable or definite neuropathic pain component can be diagnosed via screening tools at screening/baseline visits, e.g. PAIN DETECT, LANSS, DN-4).
A 12 week study is designed to compare 5-Methyl-1H-pyrazole-3-carboxylic acid (4-hydroxy-phenyl)-amide (Compound 1) to placebo and to a standard (pregabalin).
There are 2-3 dosing arms for Compound 1 (including 1000 and 2000 mg/day).

For series [1], the system named is mechanical allodynia after severe spinal cord contusion injury. Briefly: mechanical allodynia after severe spinal cord contusion injury (von Frey, Up-Down). The note with it: 10 mg/kg/day by gavage for 7 days; day 28 post surgery. In kind it is in vivo, rat. As to the method: 5-Methyl-1H-pyrazole-3-carboxylic acid (4-hydroxy-phenyl)-amide (Compound 1) treatment is tested in the suppression of the development of mechanical allodynia after severe spinal cord contusion injury in the rat. Thirteen week-old female Lewis rats (Charles River, Sulzfeld Germany) are housed under a 12:12 h dark/light regime and allowed free access to water and food. After one week of habituation the animals undergo general anesthesia with a mixture of isoflurane and air (induction: 5% isoflurane, maintenance: 2.2% isofluorane). […] The following groups were used: • Group I: SCI model+vehicle (1.5% Carboxymethylcellulose (CMC) in sterile water) by gavage for seven days • Group 2: SCI model+Compound 1 (10 mg/kg/day) in vehicle by gavage for 7 days The mechanical sensitivity response is measured as the direct pressure stimulus required for eliciting foot withdrawal in nonrestrained conditions. […] The 50% threshold force needed for paw withdrawal is calculated for both hind paws of each rat and the mean value of both hind paws is used to represent the mechanical sensitivity of this animal. The mechanical sensitivity (indicated by the 50% threshold force for paw withdrawals) is determined by the Up-Down method using von Frey filaments. […]

Series [2] deals with moderate to severe pain after third molar extractions. Nature of the series: single-dose clinical study, pain after third molar extractions (pain intensity difference). In kind it is in vivo, human. The settings on record: 1000 mg single dose, up to 24 hours post-dose; FIG. 3. As to the method:
A single-center, randomized, double-blind, placebo- and active-controlled, parallel group study was performed to evaluate the efficacy, safety and pharmacokinetic profile of a single dose of 5-Methyl-1H-pyrazole-3-carboxylic acid (4-hydroxy-phenyl)-amide (Compound 1), over a 24-hour on-site period in moderate to severe pain after third molar extractions in up to 280 male subjects was performed. Healthy male subjects, ages 18 to 45 years, were screened by medical history, vital signs, electrocardiogram (ECG), and clinical laboratory tests. Eligible subjects returned to the clinic on the day of surgery and completed baseline vital signs and clinical laboratory tests. The subjects were randomized such that one group received placebo (Group 1), one group received 1000 mg of Compound 1 (Group 2), and one group received 1000 mg acetaminophen (Group 3). All Groups received the treatment dose within up to 4.5 hours after oral surgery (third molar extraction). Pain intensity/pain relief assessments were collected at 0.25, 0.5, 0.75, 1, 1.5, 2, hourly up to 12, 16, and 24 hours post-dose and at time of first rescue medication (oral ibuprofen). […] This unexpected result makes the compounds of the present invention suitable for chronic pain and/or inflammatory indications as disclosed herein.

Series [3] has as its system carrageenan-induced paw-edema. Briefly: rat carrageenan-induced paw-edema model. In kind it is in vivo. As to the method: 5-Methyl-1H-pyrazole-3-carboxylic acid (4-hydroxy-phenyl)-amide (Compound 1) was tested in the rat carrageenan paw-edema model. The rat carrageenan model is a preclinical model of inflammation and anti-inflammatory efficacy. Generally, animals are injected with carrageenan in one hind footpad, usually, half an hour or an hour after they are treated with the test compound while the other footpad is injected with saline as a control. The measurement of paw volume/thickness is then performed at specified time points. The objective of this study was to evaluate the effect of 5-Methyl-1H-pyrazole-3-carboxylic acid (4-hydroxy-phenyl)-amide (Compound 1) on paw edema in rat induced by intra-plantar injection of i-Carrageenan into the left hind paw. [table] On Day 1, carrageenan (1%; 100 uL) was injected subcutaneously into the plantar aspect of the left hindpaw of rats from all groups. Carrageenan injection was performed in conscious rats by restraining with hand and injection was done in the middle of the plantar surface area. The carrageenan solution was vortexed/stirred before each injection. • Route of Administration Oral gavage (PO) • Dosing Regimen: Single dose on Day 1, 1 h before Carrageenan injection. • Method: The day of dosing was designated as Day 1. The animals were not sedated. The volume for each dose was administered over one injection based on the body weight. Paw volume (left hind paw) was measured before carrageenan injection (baseline) and then at 1, 3, 6 and 8 hours (+/−2 minutes) after carrageenan injection (on Day 1). Measurements will be done using a digital plethysmometer as below: In brief, the Plethysmometer is a volume meter, designed for accurate measurements of inflammation-induced swelling. It consists of a water filled cell into which the paw along with the ankle joint is dipped. A transducer records the differences in water level caused by volume displacement and provides LCD readout of the exact volume gain due to swelling. Limb volumes were recorded onto a data sheet as they were measured. One trial per animal were recorded for each time point. […]
(In the carrageenan paw model, swelling and tenderness develop within hours.)

Series [4] in a line: pharmacokinetic profile in third molar extraction study. In kind it is in vivo. The note with it: human; plasma, 1000 mg single dose, male subjects. As to the method: A single-center, randomized, double-blind, placebo- and active-controlled, parallel group study was performed to evaluate the efficacy, safety and pharmacokinetic profile of a single dose of 5-Methyl-1H-pyrazole-3-carboxylic acid (4-hydroxy-phenyl)-amide (Compound 1), over a 24-hour on-site period in moderate to severe pain after third molar extractions in up to 280 male subjects was performed.
The subjects were randomized such that one group received placebo (Group 1), one group received 1000 mg of Compound 1 (Group 2), and one group received 1000 mg acetaminophen (Group 3). All Groups received the treatment dose within up to 4.5 hours after oral surgery (third molar extraction).
Pain intensity/pain relief assessments were collected at 0.25, 0.5, 0.75, 1, 1.5, 2, hourly up to 12, 16, and 24 hours post-dose and at time of first rescue medication (oral ibuprofen). […] This unexpected result makes the compounds of the present invention suitable for chronic pain and/or inflammatory indications as disclosed herein.

Structures are written as SMILES.

As for `Cc1cc(C(=O)Nc2ccc(O)cc2)n[nH]1` [Compound 1, 5-Methyl-1H-pyrazole-3-carboxylic acid (4-hydroxy-phenyl)-amide], in the series with rat formalin (1%) model, the “nociceptive behaviors in Phase II of the rat formalin test” value was “inhibited nociceptive behaviors”. In addition, in the series with neuropathic pain, the “pain intensity and signs and symptoms of neuropathy/hyperexcitability vs. placebo and standard (pregabalin)” value is “shows improvement vs. placebo and improvement or comparable effects vs. standard”. Also, the “mechanical hypersensitivity (50% threshold force for paw withdrawal)” value in series [1] is on record as “mechanical hypersensitivity is reduced”. Also, in series [2], the “Pain intensity difference from baseline (PID) score compared with 1000 mg acetaminophen” value is “significantly greater and longer lasting PID score”. Besides, the “carrageenan-induced paw-edema (paw volume)” value in series [3] (300 mg/kg and 600 mg/kg, orally, single dose 1 h before carrageenan, FIG. 2A) is listed as “dose-relatedly inhibited carrageenan-induced paw-edema”. Also, in series [3] (FIG. 2B), the “AUC of paw volume data, 300 mg/kg dose compared to 600 mg/kg dose” value is reported as “statistically significant difference”. In series [3] (single oral dose, paw-edema inhibition), the “duration of the effect of a single oral dose” value is more than 8 h. In series [4], this compound gave a half-life of approximately 10 h.

Source of the values: patent publication US20220008390A1, “COMPOSITIONS AND METHODS FOR TREATING PAIN AND/OR INFLAMMATION” (Neumentum, Inc., priority 2020, published 2022).
